Results from patent publication US20250066286A1, “COMPOSITIONS OF (Z)-ENDOXIFEN AND METHODS OF ENRICHMENT THEREOF” (Atossa Therapeutics, Inc., priority 2022, published 2025).

Legend:
[1] = Precipitation of (Z)-endoxifen by antisolvent addition, PAD and PAI (XRPD); assay type: physicochemical
Procedure: Further (Z)-endoxifen crystallizations were performed utilizing antisolvents to affect precipitation. (Z)-endoxifen was dissolved in various solvents to obtain suspensions at room temperature that were then stirred overnight and filtered with a nylon filter (0.22 μm) to obtain a clear stock solution. Two different types of precipitation experiments were performed with the resulting clear stock solutions. For precipitation by antisolvent addition to a saturated solution (PAD) experiments, antisolvent was added dropwise to the clear stock solution during stirring at room temperature at a ratio of 1:5 or 1:10 stock solution:antisolvent. For precipitation by saturated solution addition to an antisolvent (PAI) experiments, the clear stock solution was added drop wise to antisolvent under magnetic stirring at room temperature at a ratio of 1:5 or 1:10 stock solution:antisolvent. All obtained precipitates from PAD and PAI experiments were filtered under vacuum and analyzed by XRPD. […] After storage if there was no precipitate, the solutions were evaporated at room temperature. All obtained precipitates were filtered under vacuum and analyzed by XRPD. PAD and PAI experiments were also performed on the clear solutions with a concentration of 20 mg/ml (Z)-endoxifen recovered from the solubility experiments, described in EXAMPLE 19. The clear solutions recovered were (Z)-endoxifen solutions in ethyl acetate, butyl acetate, 4-met-2-pentanone, and toluene. The procedure for the PAI and PAD was the same as described above.

[2] = Scale-up crystallizations of (Z)-endoxifen Form I, Form IV, Form VII (XRPD); assay type: physicochemical; conditions: ethyl acetate 0.8 mL sat, heptane 4 mL, RT to −20 °C, 1 d
Procedure: The acetonitrile slurry method for generating Form I (EXAMPLE 5) was performed on a 800 mg-scale. For this crystallization, 800 mg (Z)-endoxifen was partially dissolved in 8 ml acetonitrile at a concentration of 100 mg/ml and left under magnetic stirring at 50° C. for 2 days. Solid (Z)-endoxifen was collected from the slurry and analyzed by XRPD, confirming that the resultant solid was Form I. The remaining slurry was then filtered with a 0.45p m paper filter under vacuum and analyzed by XRPD, which indicated a yield of 94% for the resultant Form I
The EXAMPLE 6 procedure for generating Form IV by precipitation from 2-propanol/ethyl acetate (50/50 v/v) systems was scaled to both 500 mg and 1 g. For these crystallizations, (Z)-endoxifen was added to 2-propanol/ethyl acetate 50/50 (v/v) mixtures to achieve concentrations of 100 mg/ml. The solvent mixtures were then heated to 65° C. Once complete dissolution of (Z)-endoxifen occurred, the solvent mixtures were cooled to 25° C. at a rate of 0.2° C./minute. The solutions were maintained at 25° C. with stirring for 18 hours, and then vacuum filtered with a 0.45 μm paper filter.
The ethyl acetate:heptane crystallizations outlined in EXAMPLE 10 were repeated at larger scales. […]

[3] = PAD--GRAD-EVRT, butyl acetate 0.15 mL, butyl methyl ether 1.5 mL, RT
[4] = PAD--GRAD-EVRT, tetrahydrofuran 0.03 mL sat, acetone 0.3 mL, RT
[5] = PAD-GRAD-EVRT, ethyl acetate 0.15 mL, butyl methyl ether 1.5 mL, RT
[6] = PAD-GRAD-EVRT, toluene 0.15 mL, butyl methyl ether 1.5 mL, RT
[7] = PAD, butyl acetate 0.15 mL, 20 mg/mL, antisolvent heptane 0.75 mL, RT
[8] = PAD, butyl acetate 0.15 mL, 20 mg/mL, antisolvent heptane 1.5 mL, RT
[9] = PAD, ethyl acetate 0.15 mL, 20 mg/mL, antisolvent heptane 0.75 mL, RT
[10] = PAD, ethyl acetate 0.15 mL, 20 mg/mL, antisolvent heptane 1.5 mL, RT
[11] = PAD, tetrahydrofuran 0.03 mL sat, heptane 0.15 mL, RT
[12] = PAD, tetrahydrofuran 0.03 mL sat, water 0.15 mL, RT
[13] = PAD, tetrahydrofuran 0.03 mL sat, water 0.3 mL, RT
[14] = PAD, toluene 0.15 mL, 20 mg/mL, antisolvent heptane 1.5 mL, RT
[15] = PAI-GRAD-EVRT, tetrahydrofuran 0.03 mL sat, acetone 0.3 mL, RT
[16] = PAI, tetrahydrofuran 0.03 mL sat, heptane 0.15 mL, RT
[17] = PAI, tetrahydrofuran 0.03 mL sat, water 0.3 mL, RT

With CC/C(=C(\c1ccc(O)cc1)c1ccc(OCCNC)cc1)c1ccccc1 [(Z)-endoxifen, (Z)-4-(1-(4-(2-(methylamino)ethoxy)phenyl)-2-phenylbut-1-enyl)phenol] the “Output Crystallinity [high/low/SC/oriented]” value [1, 3] was “low”, the “Output Main phase [phase]” value [1, 3] was “Form I” and the “Output Main phase [phase]” value [1, 4] was “Form XII”. For the same compound, the “Output Traces [phase]” value [1, 4] was “Form I”, the “Output Main phase [phase]” value ([1]; PAD-GRAD-EVRT, dimethylformamide 0.15 mL sat, butyl methyl ether 1.5 mL, RT) was “Form I” and the “Output Crystallinity [high/low/SC/oriented]” value [1, 5] was “low”. For the same compound, the “Output Main phase [phase]” value [1, 5] was “Form I”, the “Output Crystallinity [high/low/SC/oriented]” value [1, 6] was “low” and the “Output Main phase [phase]” value [1, 6] was “Form VIII”. For the same compound, the “Output Main phase [phase]” value ([1]; PAD-GRAD, butyl acetate 0.15 mL, butyl methyl ether 1.5 mL, 25 to −20 °C, ramp not controlled, 1 d) was “no solid”, the “Output Main phase [phase]” value ([1]; PAD-GRAD, dimethylformamide 0.15 mL sat, butyl methyl ether 1.5 mL, RT to −20 °C, 1 d) was “no solid” and the “Output Main phase [phase]” value ([1]; PAD-GRAD, ethyl acetate 0.15 mL, butyl methyl ether 1.5 mL, 25 to −20 °C, ramp not controlled, 1 d) was “no solid”. For the same compound, the “Output Main phase [phase]” value ([1]; PAD-GRAD, methyl isobutyl ketone 0.15 mL, butyl methyl ether 1.5 mL, 25 to −20 °C, ramp not controlled, 1 d) was “no solid”, the “Output Main phase [phase]” value ([1]; PAD-GRAD, tetrahydrofuran 0.03 mL sat, acetone 0.3 mL, RT to −20 °C, 1 d) was “no solid” and the “Output Main phase [phase]” value ([1]; PAD-GRAD, toluene 0.15 mL, butyl methyl ether 1.5 mL, 25 to −20 °C, ramp not controlled, 1 d) was “no solid”. The “Output Main phase [phase]” value ([1]; PAD, butyl acetate 0.15 mL, 20 mg/mL, antisolvent butyl methyl ether 0.75 mL, RT) was “no solid”, the “Output Main phase [phase]” value ([1]; PAD, butyl acetate 0.15 mL, 20 mg/mL, antisolvent butyl methyl ether 1.5 mL, RT) was “no solid” and the “Output Crystallinity [high/low/SC/oriented]” value [1, 7] was “low”. The “Output Main phase [phase]” value [1, 7] was “no solid”, the “Output Crystallinity [high/low/SC/oriented]” value [1, 8] was “low” and the “Output Main phase [phase]” value [1, 8] was “Form IX”. The “Output Main phase [phase]” value ([1]; PAD, dimethylformamide 0.15 mL sat, butyl methyl ether 0.75 mL, RT) was “no solid”, the “Output Main phase [phase]” value ([1]; PAD, dimethylformamide 0.15 mL sat, butyl methyl ether 1.5 mL, RT) was “no solid” and the “Output Main phase [phase]” value ([1]; PAD, dimethylformamide 0.15 mL sat, water 0.75 mL, RT) was “amorphous”. The “Output Main phase [phase]” value ([1]; PAD, ethyl acetate 0.15 mL, 20 mg/mL, antisolvent butyl methyl ether 0.75 mL, RT) was “no solid”, the “Output Main phase [phase]” value ([1]; PAD, ethyl acetate 0.15 mL, 20 mg/mL, antisolvent butyl methyl ether 1.5 mL, RT) was “no solid” and the “Output Crystallinity [high/low/SC/oriented]” value [1, 9] was “low”. For the same compound, the “Output Main phase [phase]” value [1, 9] was “no solid”, the “Output Crystallinity [high/low/SC/oriented]” value [1, 10] was “low” and the “Output Main phase [phase]” value [1, 10] was “Form IX”. The “Output Main phase [phase]” value ([1]; PAD, methyl isobutyl ketone 0.15 mL, 20 mg/mL, antisolvent butyl methyl ether 0.75 mL, RT) was “no solid”, the “Output Main phase [phase]” value ([1]; PAD, methyl isobutyl ketone 0.15 mL, 20 mg/mL, antisolvent butyl methyl ether 1.5 mL, RT) was “no solid” and the “Output Main phase [phase]” value ([1]; PAD, methyl isobutyl ketone 0.15 mL, 20 mg/mL, antisolvent heptane 0.75 mL, RT) was “no solid”. For the same compound, the “Output Main phase [phase]” value ([1]; PAD, methyl isobutyl ketone 0.15 mL, 20 mg/mL, antisolvent heptane 1.5 mL, RT) was “no solid”, the “Output Main phase [phase]” value ([1]; PAD, tetrahydrofuran 0.03 mL sat, acetone 0.15 mL, RT) was “no solid” and the “Output Main phase [phase]” value ([1]; PAD, tetrahydrofuran 0.03 mL sat, acetone 0.3 mL, RT) was “no solid”. For the same compound, the “Output Crystallinity [high/low/SC/oriented]” value [1, 11] was “low”, the “Output Main phase [phase]” value [1, 11] was “Form XIX” and the “Output Crystallinity [high/low/SC/oriented]” value [1, 12] was “low”. For the same compound, the “Output Main phase [phase]” value [1, 12] was “no solid”, the “Output Crystallinity [high/low/SC/oriented]” value [1, 13] was “low” and the “Output Main phase [phase]” value [1, 13] was “Form IV”. For the same compound, the “Output Main phase [phase]” value ([1]; PAD, toluene 0.15 mL, 20 mg/mL, antisolvent butyl methyl ether 0.75 mL, RT) was “no solid”, the “Output Main phase [phase]” value ([1]; PAD, toluene 0.15 mL, 20 mg/mL, antisolvent butyl methyl ether 1.5 mL, RT) was “no solid” and the “Output Main phase [phase]” value ([1]; PAD, toluene 0.15 mL, 20 mg/mL, antisolvent heptane 0.75 mL, RT) was “no solid”. For the same compound, the “Output Crystallinity [high/low/SC/oriented]” value [1, 14] was “low”, the “Output Main phase [phase]” value [1, 14] was “Amorphous” and the “Output Main phase [phase]” value ([1]; PAI-GRAD-EVRT, dimethylformamide 0.15 mL sat, butyl methyl ether 1.5 mL, RT) was “Form I”. The “Output Main phase [phase]” value [1, 15] was “Form XII”, the “Output Traces [phase]” value [1, 15] was “Form XIII” and the “Output Main phase [phase]” value ([1]; PAI-GRAD, dimethylformamide 0.15 mL sat, butyl methyl ether 1.5 mL, RT to −20 °C, 1 d) was “no solid”. The “Output Main phase [phase]” value ([1]; PAI-GRAD, tetrahydrofuran 0.03 mL sat, acetone 0.3 mL, RT to −20 °C, 3 d) was “no solid”, the “Output Main phase [phase]” value ([1]; PAI, dimethylformamide 0.15 mL sat, butyl methyl ether 1.5 mL, RT) was “no solid” and the “Output Main phase [phase]” value ([1]; PAI, dimethylformamide 0.15 mL sat, water 0.75 mL, RT) was “Form I”. The “Output Main phase [phase]” value ([1]; PAI, tetrahydrofuran 0.03 mL sat, acetone 0.3 mL, RT) was “no solid”, the “Output Crystallinity [high/low/SC/oriented]” value [1, 16] was “low” and the “Output Main phase [phase]” value [1, 16] was “Form XIX”. For the same compound, the “Output Crystallinity [high/low/SC/oriented]” value [1, 17] was “low”, the “Output Main phase [phase]” value [1, 17] was “Form IV” and the “XRPD Results Phase in traces” value ([2]; PAD-GRAD) was “Form XVI”. The “XRPD Results Phase in traces” value ([2]; PAI-GRAD) was “Form IX”.
